Data: patent US10538498B2, “1,3,4-oxadiazole sulfonamide derivative compounds as histone deacetylase 6 inhibitor, and the pharmaceutical composition comprising the same” (Chong Kun Dang Pharmaceutical Corp., priority 2015, dated 2020)
pIC50: −log10 of the molar value.

Target: T1, human recombinant HDAC6 (Homo sapiens, UniProt Q9UBN7)
T1 construct: purchased Calbiochem 382180
T1 sequence (Q9UBN7 1-1215): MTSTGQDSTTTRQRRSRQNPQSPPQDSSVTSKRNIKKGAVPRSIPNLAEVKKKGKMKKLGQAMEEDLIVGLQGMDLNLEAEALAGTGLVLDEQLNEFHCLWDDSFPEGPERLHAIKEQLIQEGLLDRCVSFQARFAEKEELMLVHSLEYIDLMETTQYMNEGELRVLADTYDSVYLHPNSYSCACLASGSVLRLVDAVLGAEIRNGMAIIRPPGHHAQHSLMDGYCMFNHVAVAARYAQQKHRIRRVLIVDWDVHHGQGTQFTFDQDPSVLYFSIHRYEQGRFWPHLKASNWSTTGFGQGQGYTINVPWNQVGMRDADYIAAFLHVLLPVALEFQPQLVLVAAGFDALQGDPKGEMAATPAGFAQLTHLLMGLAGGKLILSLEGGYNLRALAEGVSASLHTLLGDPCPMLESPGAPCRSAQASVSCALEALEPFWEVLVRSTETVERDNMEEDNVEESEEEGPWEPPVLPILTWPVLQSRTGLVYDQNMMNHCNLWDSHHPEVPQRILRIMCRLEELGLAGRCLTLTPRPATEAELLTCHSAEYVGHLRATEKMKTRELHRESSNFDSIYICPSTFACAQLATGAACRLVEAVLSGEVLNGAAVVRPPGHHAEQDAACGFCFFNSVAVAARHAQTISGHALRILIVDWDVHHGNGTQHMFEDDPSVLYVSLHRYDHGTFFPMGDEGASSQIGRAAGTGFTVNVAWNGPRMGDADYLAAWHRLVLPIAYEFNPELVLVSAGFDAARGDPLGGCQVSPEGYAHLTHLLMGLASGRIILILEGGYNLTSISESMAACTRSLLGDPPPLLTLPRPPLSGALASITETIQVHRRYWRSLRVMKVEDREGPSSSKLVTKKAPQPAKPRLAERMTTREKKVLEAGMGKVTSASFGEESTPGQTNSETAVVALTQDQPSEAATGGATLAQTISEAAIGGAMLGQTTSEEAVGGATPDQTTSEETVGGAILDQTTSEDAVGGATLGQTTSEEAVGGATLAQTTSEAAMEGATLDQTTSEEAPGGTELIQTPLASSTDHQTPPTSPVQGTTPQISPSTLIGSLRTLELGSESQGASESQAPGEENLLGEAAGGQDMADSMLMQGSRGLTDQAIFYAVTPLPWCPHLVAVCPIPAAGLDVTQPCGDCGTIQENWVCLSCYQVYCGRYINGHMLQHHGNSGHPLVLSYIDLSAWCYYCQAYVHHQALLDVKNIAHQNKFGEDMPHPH
Experiment: HDAC6 enzyme activity inhibition assay (HDAC Fluorimetric Drug Discovery Kit)
Assay type: biochemical
Conditions: for HDAC6 selectivity (fold): HDAC1 vs HDAC6; for pIC50: same protocol as the HDAC1 enzyme activity test
How it was run: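 Fluorescence (Ex 360, Em 460) after 30 min developer step; IC50 from dose-response. Reaction: 0.3 μg recombinant enzyme, 10 μM Fluor de Lys-SIRT1 substrate, 5-fold compound dilutions, 60 min at 30° C. Same protocol for both isoforms.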

| Compound | HDAC6 selectivity (fold) | pIC50 |
| --- | --- | --- |
| CS(=O)(=O)N(Cc1ccc(-c2nnc(C(F)F)o2)cc1F)[C@H]1CCc2ccccc21 [Compound 11749, (S)—N-(4-(5-(difluoromethyl)-1,3,4-oxadiazol-2-yl)-2-fluorobenzyl)-N-(2,3-dihydro-1H-inden-1-yl)methanesulfonamide] | 255 fold | 6.41 |
| CN1CCc2nc(N(Cc3ccc(-c4nnc(C(F)F)o4)cc3)S(C)(=O)=O)sc2C1 [Compound 11750, N-(4-(5-(difluoromethyl)-1,3,4-oxadiazol-2-yl)benzyl)-N-(5-methyl-4,5,6,7-tetrahydrothiazolo[5,4-c]pyridin-2-yl)methanesulfonamide] | 77 fold | 5.89 |
| O=C(CN1CCN(CCS(=O)(=O)N(Cc2ccc(-c3nnc(C(F)F)o3)cc2)c2ccccc2)CC1)N1CCOCC1 [Compound 11751, N-(4-(5-(difluoromethyl)-1,3,4-oxadiazol-2-yl)benzyl)-2-(4-(2-morpholino-2-oxoethyl)piperazin-1-yl)-N-phenylethane-1-sulfonamide] | 1170 fold | 7.07 |
| O=S(=O)(CCN1CCCOCC1)N(Cc1ccc(-c2nnc(C(F)F)o2)cc1)c1ccccc1 [Compound 11752, N-(4-(5-(difluoromethyl)-1,3,4-oxadiazol-2-yl)benzyl)-2-(1,4-oxazepan-4-yl)-N-phenylethane-1-sulfonamide] | 868 fold | 6.94 |
| O=S(=O)(CCN1CC[C@@H](F)C1)N(Cc1ccc(-c2nnc(C(F)F)o2)cc1)c1ccccc1 [Compound 11753, (R)—N-(4-(5-(difluoromethyl)-1,3,4-oxadiazol-2-yl)benzyl)-2-(3-fluoropyrrolidin-1-yl)-N-phenylethane-1-sulfonamide] | 953 fold | 6.98 |
| CN(C)[C@@H]1CCN(CCS(=O)(=O)N(Cc2ccc(-c3nnc(C(F)F)o3)cc2)c2ccccc2)C1 [Compound 11754, (R)—N-(4-(5-(difluoromethyl)-1,3,4-oxadiazol-2-yl)benzyl)-2-(3-(dimethylamino)pyrrolidin-1-yl)-N-phenylethane-1-sulfonamide] | 1420 fold | 7.15 |
| CN(C)[C@H]1CCN(CCS(=O)(=O)N(Cc2ccc(-c3nnc(C(F)F)o3)cc2)c2ccccc2)C1 [Compound 11755, (S)—N-(4-(5-(difluoromethyl)-1,3,4-oxadiazol-2-yl)benzyl)-2-(3-(dimethylamino)pyrrolidin-1-yl)-N-phenylethane-1-sulfonamide] | 1377 fold | 7.14 |
| O=S(=O)(CCN1Cc2ccccc2C1)N(Cc1ccc(-c2nnc(C(F)F)o2)cc1)c1ccccc1 [Compound 11756, N-(4-(5-(difluoromethyl)-1,3,4-oxadiazol-2-yl)benzyl)-2-(isoindolin-2-yl)-N-phenylethane-1-sulfonamide] | 264 fold | 6.42 |
| CCN1CCN(CCS(=O)(=O)N(Cc2ccc(-c3nnc(C(F)F)o3)cc2)c2ccccc2)CC1 [Compound 11757, N-(4-(5-(difluoromethyl)-1,3,4-oxadiazol-2-yl)benzyl)-2-(4-ethylpiperazin-1-yl)-N-phenylethane-1-sulfonamide] | 1447 fold | 7.16 |
| COCCN1CCN(CCS(=O)(=O)N(Cc2ccc(-c3nnc(C(F)F)o3)cc2)c2ccccc2)CC1 [Compound 11758, N-(4-(5-(difluoromethyl)-1,3,4-oxadiazol-2-yl)benzyl)-2-(4-(2-methoxyethyl)piperazin-1-yl)-N-phenylethane-1-sulfonamide] | 1039 fold | 7.02 |
| CC(=O)N1CCCN(CCS(=O)(=O)N(Cc2ccc(-c3nnc(C(F)F)o3)cc2)c2ccccc2)CC1 [Compound 11759, 2-(4-acetyl-1,4-diazepan-1-yl)-N-(4-(5-(difluoromethyl)-1,3,4-oxadiazol-2-yl)benzyl)-N-phenylethane-1-sulfonamide] | 984 fold | 6.99 |
| O=S(=O)(CCN1CCCN(Cc2ccccc2)CC1)N(Cc1ccc(-c2nnc(C(F)F)o2)cc1)c1ccccc1 [Compound 11760, 2-(4-benzyl-1,4-diazepan-1-yl)-N-(4-(5-(difluoromethyl)-1,3,4-oxadiazol-2-yl)benzyl)-N-phenylethane-1-sulfonamide] | 508 fold | 6.71 |
| O=C(C1CC1)N1CCN(CCS(=O)(=O)N(Cc2ccc(-c3nnc(C(F)F)o3)cc2)c2ccccc2)CC1 [Compound 11761, 2-(4-(cyclopropanecarbonyl)piperazin-1-yl)-N-(4-(5-(difluoromethyl)-1,3,4-oxadiazol-2-yl)benzyl)-N-phenylethane-1-sulfonamide] | 976 fold | 6.99 |
| O=S(=O)(CCN1CCC(Cc2ccccc2)CC1)N(Cc1ccc(-c2nnc(C(F)F)o2)cc1)c1ccccc1 [Compound 11762, 2-(4-benzylpiperidin-1-yl)-N-(4-(5-(difluoromethyl)-1,3,4-oxadiazol-2-yl)benzyl)-N-phenylethane-1-sulfonamide] | 100 fold | 6.00 |
| O=S(=O)(CCN1CCC(N2CCOCC2)CC1)N(Cc1ccc(-c2nnc(C(F)F)o2)cc1)c1ccccc1 [Compound 11763, N-(4-(5-(difluoromethyl)-1,3,4-oxadiazol-2-yl)benzyl)-2-(4-morpholinopiperidin-1-yl)-N-phenylethane-1-sulfonamide] | 948 fold | 6.98 |
| Cc1noc(C2CCN(CCS(=O)(=O)N(Cc3ccc(-c4nnc(C(F)F)o4)cc3)c3ccccc3)CC2)n1 [Compound 11764, N-(4-(5-(difluoromethyl)-1,3,4-oxadiazol-2-yl)benzyl)-2-(4-(3-methyl-1,2,4-oxadiazol-5-yl)piperidin-1-yl)-N-phenylethane-1-sulfonamide] | 731 fold | 6.86 |
| CCN(CCS(=O)(=O)N(Cc1ccc(-c2nnc(C(F)F)o2)cc1)c1ccccc1)Cc1ccccc1 [Compound 11765, 2-(benzyl(ethyl)amino)-N-(4-(5-(difluoromethyl)-1,3,4-oxadiazol-2-yl)benzyl)-N-phenylethane-1-sulfonamide] | 526 fold | 6.72 |
| O=S(=O)(CCN1CCN(c2ccccc2)CC1)N(Cc1ccc(-c2nnc(C(F)F)o2)cc1)c1ccccc1 [Compound 11766, N-(4-(5-(difluoromethyl)-1,3,4-oxadiazol-2-yl)benzyl)-N-phenyl-2-(4-phenylpiperazin-1-yl)ethane-1-sulfonamide] | 319 fold | 6.50 |
| O=S(=O)(CCN1CCN(c2ccccn2)CC1)N(Cc1ccc(-c2nnc(C(F)F)o2)cc1)c1ccccc1 [Compound 11767, N-(4-(5-(difluoromethyl)-1,3,4-oxadiazol-2-yl)benzyl)-N-phenyl-2-(4-(pyridin-2-yl)piperazin-1-yl)ethane-1-sulfonamide] | 844 fold | 6.93 |
| O=S(=O)(CCN1CCN(c2ccncc2)CC1)N(Cc1ccc(-c2nnc(C(F)F)o2)cc1)c1ccccc1 [Compound 11768, N-(4-(5-(difluoromethyl)-1,3,4-oxadiazol-2-yl)benzyl)-N-phenyl-2-(4-(pyridin-4-yl)piperazin-1-yl)ethane-1-sulfonamide] | 2610 fold | 7.42 |
| O=S(=O)(CCN1CCN(c2ccc(F)cc2)CC1)N(Cc1ccc(-c2nnc(C(F)F)o2)cc1)c1ccccc1 [Compound 11769, N-(4-(5-(difluoromethyl)-1,3,4-oxadiazol-2-yl)benzyl)-2-(4-(4-fluorophenyl)piperazin-1-yl)-N-phenylethane-1-sulfonamide] | 359 fold | 6.56 |
| O=S(=O)(CCN1CCN(c2ccc(Cl)c(Cl)c2)CC1)N(Cc1ccc(-c2nnc(C(F)F)o2)cc1)c1ccccc1 [Compound 11770, 2-(4-(3,4-dichlorophenyl)piperazin-1-yl)-N-(4-(5-(difluoromethyl)-1,3,4-oxadiazol-2-yl)benzyl)-N-phenylethane-1-sulfonamide] | 112 fold | 6.05 |
